From US11472791B2 (Incyte Corporation, priority 2019, dated 2022)

Key:
Format in all cases: biochemical
Settings in all cases: 1 mM ATP
[1] = molecular target: JAK2 (Homo sapiens (Human), UniProt O60674); test: JAK inhibitory activity assay (JAK2)
Procedure: (§1) Compounds herein were tested for inhibitory activity of JAK targets according to the following in vitro assay described in Park et al., Analytical Biochemistry 1999, 269, 94-104. The catalytic domains of human JAK1 (a.a. 837-1142), Jak2 (a.a. 828-1132) and Jak3 (a.a. 781-1124) with an N-terminal His tag were expressed using baculovirus in insect cells and purified. The catalytic activity of JAK1 and JAK2 was assayed by measuring the phosphorylation of a biotinylated peptide. The phosphorylated peptide was detected by homogenous time resolved fluorescence (HTRF). Each enzyme reaction was carried out with or without test compound (11-point dilution), JAK enzyme, 500 nM peptide, adenosine triphosphate (ATP; 1 mM), and 2.0% dimethyl sulfoxide (DMSO) in assay buffer (50 mM Tris (pH 7.8) buffer, 100 mM NaCl, 5 mM DTT, and 0.1 mg/mL (0.01%) BSA). The peptide substrate (Biotin-[…]) was custom synthesized by Biosource International. Reactions were carried out at room temperature for 1 hour and then stopped with 10 μL 45 mM EDTA, 200 nM SA-APC, 4 nM Eu-Py20 in assay buffer (Perkin Elmer, Boston, Mass.). After incubation for 30 minutes at room temperature, the HTRF signal was measured on a PheraStar plate reader.

[2] = molecular target: human JAK1 (Homo sapiens, UniProt P23458); test: JAK inhibitory activity assay (JAK1)
Procedure: as §1

[3] = molecular target: CDK2/Cyclin E1 (Homo sapiens (Human), UniProt P24941); test: CDK2/Cyclin E1 HTRF enzyme activity assay
Procedure: Assays are conducted in white 384-well polystyrene plates in a final reaction volume of 8 μL. […] HTRF signals are read after 1 hour at room temperature on a PHERAstar FS plate reader (BMG Labtech). Data is analyzed with IDBS XLFit and GraphPad Prism 5.0 software using a three or four parameter dose response curve to determine IC50 for each compound.

JAK2, sequence (O60674 828-1132): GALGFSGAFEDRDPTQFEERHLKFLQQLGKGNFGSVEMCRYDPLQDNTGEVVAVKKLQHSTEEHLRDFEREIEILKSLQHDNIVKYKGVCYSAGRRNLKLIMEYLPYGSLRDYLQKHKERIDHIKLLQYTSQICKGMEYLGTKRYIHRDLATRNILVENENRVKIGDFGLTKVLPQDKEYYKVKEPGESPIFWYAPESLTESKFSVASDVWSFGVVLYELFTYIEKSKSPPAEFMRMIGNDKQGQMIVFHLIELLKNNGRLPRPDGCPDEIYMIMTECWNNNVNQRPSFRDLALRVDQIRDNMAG

IC50 [1] [nM]	IC50 [2] [nM]	IC50 [3] [nM]	Compound
≥ 10000	≥ 10000	< 50	Cn1cc(S(=O)(=O)N2CCC(Nc3ncc(C(F)(F)F)c(-c4cnn(CC(F)(F)F)c4)n3)CC2)cn1 [Example 1, N-(1-((1-Methyl-1H-pyrazol-4-yl)sulfonyl)piperidin-4-yl)-4-(1-(2,2,2-trifluoroethyl)-1H-pyrazol-4-yl)-5-(trifluoromethyl)pyrimidin-2-amine]
≥ 10000	≥ 10000	< 50	CN1CCN(Cc2ccc(-n3cc(-c4nc(NC5CCN(S(C)(=O)=O)CC5)ncc4C#N)cn3)c(Cl)c2)CC1 [Example 99, 4-(1-(2-Chloro-4-((4-methylpiperazin-1-yl)methyl)phenyl)-1H-pyrazol-4-yl)-2-((1-(methylsulfonyl)piperidin-4-yl)amino)pyrimidine-5-carbonitrile]
≥ 10000	≥ 10000	< 50	CC(C)(C(N)=O)n1cc(-c2nc(NC3CCN(S(=O)(=O)c4ccccn4)CC3)ncc2C(F)(F)F)cn1 [Example 96, 2-Methyl-2-(4-(2-((1-(pyridin-2-ylsulfonyl)piperidin-4-yl)amino)-5-(trifluoromethyl)pyrimidin-4-yl)-1H-pyrazol-1-yl)propanamide]
≥ 10000	≥ 10000	< 50	C[C@]1(N)C[C@@H](n2cc(-c3nc(NC4CCN(S(=O)(=O)C5CC5)CC4)ncc3C(F)(F)F)cn2)C1 [Example 44, 4-(1-((1s,3s)-3-Amino-3-methylcyclobutyl)-1H-pyrazol-4-yl)-N-(1-(cyclopropylsulfonyl)piperidin-4-yl)-5-(trifluoromethyl)pyrimidin-2-amine]
≥ 10000	≥ 10000	< 50	CNCc1ccc(-n2cc(-c3nc(NC4CCN(S(C)(=O)=O)CC4)ncc3C(F)(F)F)cn2)c(C)c1 [Example 41, 4-(1-(2-Methyl-4-((methylamino)methyl)phenyl)-1H-pyrazol-4-yl)-N-(1-(methylsulfonyl)piperidin-4-yl)-5-(trifluoromethyl)pyrimidin-2-amine]
≥ 10000	≥ 10000	< 50	CC(C)(O)Cn1cc(-c2nc(NC3CCN(S(=O)(=O)C4CC4)CC3)ncc2C(F)(F)F)cn1 [Example 51, 1-(4-(2-((1-(Cyclopropylsulfonyl)piperidin-4-yl)amino)-5-(trifluoromethyl)pyrimidin-4-yl)-1H-pyrazol-1-yl)-2-methylpropan-2-ol]
≥ 5000	≥ 5000	< 50	CO[C@H]1CC[C@H](n2cc(-c3nc(NC4CCN(S(=O)(=O)c5cn(C)cn5)CC4)ncc3C(F)(F)F)cn2)CC1 [Example 42, 4-(1-((1r,4r)-4-Methoxycyclohexyl)-1H-pyrazol-4-yl)-N-(1-((1-methyl-1H-imidazol-4-yl)sulfonyl)piperidin-4-yl)-5-(trifluoromethyl)pyrimidin-2-amine]
≥ 10000	≥ 10000	< 50	CC(C)(O)Cn1cc(-c2nc(NC3CCN(S(=O)(=O)C4CC4)CC3)ncc2C#N)cn1 [Example 54, 2-((1-(Cyclopropylsulfonyl)piperidin-4-yl)amino)-4-(1-(2-hydroxy-2-methylpropyl)-1H-pyrazol-4-yl)pyrimidine-5-carbonitrile]
≥ 10000	≥ 10000	< 50	CN1CCC(n2cc(-c3nc(NC4CCN(S(C)(=O)=O)CC4)ncc3C(F)(F)F)cn2)CC1 [Example 11, 4-(1-(1-Methylpiperidin-4-yl)-1H-pyrazol-4-yl)-N-(1-(methylsulfonyl)piperidin-4-yl)-5-(trifluoromethyl)pyrimidin-2-amine]
≥ 10000	≥ 10000	< 50	CS(=O)(=O)N1CCC(Nc2ncc(C(F)(F)F)c(-c3cnn(CC(F)(F)F)c3)n2)CC1 [Example 10, N-(1-(Methylsulfonyl)piperidin-4-yl)-4-(1-(2,2,2-trifluoroethyl)-1H-pyrazol-4-yl)-5-(trifluoromethyl)pyrimidin-2-amine]
		< 50	Cn1cnc(S(=O)(=O)N2CCC(Nc3ncc(C(F)(F)F)c(-c4cnn(C5CCOCC5)c4)n3)CC2)c1 [Example 23, N-(1-((1-Methyl-1H-imidazol-4-yl)sulfonyl)piperidin-4-yl)-4-(1-(tetrahydro-2H-pyran-4-yl)-1H-pyrazol-4-yl)-5-(trifluoromethyl)pyrimidin-2-amine]
		< 50	C[C@]1(O)CC[C@@H](NCc2ccc(-n3cc(-c4nc(NC5CCN(S(=O)(=O)C6CC6)CC5)ncc4C#N)cn3)c(Cl)c2)CC1 [Example 283, 4-(1-(2-Chloro-4-((((1s,4s)-4-hydroxy-4-methylcyclohexyl)amino)methyl)phenyl)-1H-pyrazol-4-yl)-2-((1-(cyclopropylsulfonyl)piperidin-4-yl)amino)pyrimidine-5-carbonitrile]
		< 50	CC(C)(O)Cn1cc(-c2nc(NC3CCN(S(=O)(=O)C4CCC(N5CCC5)CC4)CC3)ncc2C(F)(F)F)cn1 (single isomer, unassigned) [90 (peak 2), 1-(4-(2-((1-((4-(Azetidin-1-yl)cyclohexyl)sulfonyl)piperidin-4-yl)amino)-5-(trifluoromethyl)pyrimidin-4-yl)-1H-pyrazol-1-yl)-2-methylpropan-2-ol]
		< 50	CS(=O)(=O)N1CCC(Nc2ncc(C(F)(F)F)c(-c3cnn(-c4ccccc4Cl)c3)n2)CC1 [Example 14, 4-(1-(2-Chlorophenyl)-1H-pyrazol-4-yl)-N-(1-(methylsulfonyl)piperidin-4-yl)-5-(trifluoromethyl)pyrimidin-2-amine]
		< 50	Cc1cc(CN2CCN(C)CC2)ccc1-n1cc(-c2nc(N[C@H]3CCN(S(C)(=O)=O)C[C@H]3F)ncc2C(F)(F)F)cn1 [Example 101, N-((3R,4S)-3-Fluoro-1-(methylsulfonyl)piperidin-4-yl)-4-(1-(2-methyl-4-((4-methylpiperazin-1-yl)methyl)phenyl)-1H-pyrazol-4-yl)-5-(trifluoromethyl)pyrimidin-2-amine]
		< 50	CC(C)(O)Cn1cc(-c2nc(NC3CCN(S(=O)(=O)CCCN4CCNC(=O)C4)CC3)ncc2C(F)(F)F)cn1 [Example 69, 4-(3-((4-((4-(1-(2-Hydroxy-2-methylpropyl)-1H-pyrazol-4-yl)-5-(trifluoromethyl)pyrimidin-2-yl)amino)piperidin-1-yl)sulfonyl)propyl)piperazin-2-one]
		< 50	CN1CCN(Cc2ccc(-n3cc(-c4nc(NC5CCN(S(=O)(=O)c6ccccn6)CC5)ncc4C#N)cn3)c(Cl)c2)CC1 [Example 258, 4-(1-(2-Chloro-4-((4-methylpiperazin-1-yl)methyl)phenyl)-1H-pyrazol-4-yl)-2-((1-(pyridin-2-ylsulfonyl)piperidin-4-yl)amino)pyrimidine-5-carbonitrile]
		< 50	CN1CCN(Cc2ccc(-n3cc(-c4nc(NC5CCN(S(=O)(=O)c6cn(C)cn6)CC5)ncc4C#N)cn3)c(Cl)c2)CC1 [Example 261, 4-(1-(2-Chloro-4-((4-methylpiperazin-1-yl)methyl)phenyl)-1H-pyrazol-4-yl)-2-((1-((1-methyl-1H-imidazol-4-yl)sulfonyl)piperidin-4-yl)amino)pyrimidine-5-carbonitrile]
		< 50	[2H]C(NC([2H])([2H])[2H])c1ccc(-n2cc(-c3nc(NC4CCN(S(=O)(=O)CC)CC4)ncc3C#N)cn2)c(Cl)c1 (stereo not drawn) [Example 140, 4-(1-(2-Chloro-4-(((methyl-d3)amino)methyl-d)phenyl)-1H-pyrazol-4-yl)-2-((1-(ethylsulfonyl)piperidin-4-yl)amino)pyrimidine-5-carbonitrile]
		< 50	CCN1CCN(Cc2ccc(-n3cc(-c4nc(NC5CCN(S(=O)(=O)c6cn(C)cn6)CC5)ncc4C(F)(F)F)cn3)c(C)n2)CC1 [Example 253, 4-(1-(6-((4-Ethylpiperazin-1-yl)methyl)-2-methylpyridin-3-yl)-1H-pyrazol-4-yl)-N-(1-((1-methyl-1H-imidazol-4-yl)sulfonyl)piperidin-4-yl)-5-(trifluoromethyl)pyrimidin-2-amine]
		< 50	C[C@@H]1CN(S(=O)(=O)c2cn(C)cn2)CC[C@@H]1Nc1ncc(C(F)(F)F)c(-c2cnn(CC(C)(C)O)c2)n1 [Example 61, 2-Methyl-1-(4-(2-(((3R,4S)-3-methyl-1-((1-methyl-1H-imidazol-4-yl)sulfonyl)piperidin-4-yl)amino)-5-(trifluoromethyl)pyrimidin-4-yl)-1H-pyrazol-1-yl)propan-2-ol]
		< 50	CC(C)(O)Cn1cc(-c2nc(NC3CCN(S(=O)(=O)CCN4CCCC4)CC3)ncc2C(F)(F)F)cn1 [Example 82, 2-Methyl-1-(4-(2-((1-((2-(pyrrolidin-1-yl)ethyl)sulfonyl)piperidin-4-yl)amino)-5-(trifluoromethyl)pyrimidin-4-yl)-1H-pyrazol-1-yl)propan-2-ol]
